Laboratory results from PMC9151520 (Archives of Toxicology, 2022).
Counter-ions that a name gives are not always drawn. Like-named read-outs stand apart in the source and are kept apart here.

Legend:
[1] = test system: p53 signaling (p53RE-bla HCT-116 cells); assay: cells; assay type: cell-based
[2] = test system: p53 signaling (p53RE-bla HCT-116 cells); assay: cells; details: Homo sapiens
[3] = test system: p53 signaling (p53RE-bla HCT-116 cells)
[4] = test system: p53RE-bla HCT-116 cells
[5] = test system: p53 signaling (p53RE-bla HCT-116 cells); remark: listed apart in the source
[6] = HCT-116, read-out: p53 activation EC50, primary screening
[7] = HCT-116, read-out: p53 activation efficacy, primary screening

SMILES | p53 activation EC50, cherry pick confirmation [1] | p53 activation EC50, primary screening [1] | p53 activation efficacy, cherry pick confirmation [1] | p53 activation efficacy, primary screening [1] | EC50 [2, 6] | Emax [2, 7] | p53 activation EC50, cherry pick confirmation [3] | p53 activation efficacy, cherry pick confirmation [3] | Viability EC50, cherry pick confirmation [4] | Viability EC50, primary screening [4] | Viability efficacy, cherry pick confirmation [4] | Viability efficacy, primary screening [4] | p53 activation EC50, cherry pick confirmation [5] | p53 activation EC50, primary screening [5] | p53 activation efficacy, cherry pick confirmation [5] | p53 activation efficacy, primary screening [5] | other results
O=c1[nH]c(=O)n([C@H]2C[C@H](O)[C@@H](CO)O2)cc1F [Floxuridine] | – | – | – | – | – | – | – | – | – | – | – | – | – | – | – | – | EC50 ([1]; Homo sapiens, HCT-116, read-out: EC50, p53 activation, cherry pick confirmation): 15.7 µM; EC50 ([1]; Homo sapiens, HCT-116, read-out: EC50, p53 activation, primary screening): 0.643 µM; Emax ([1]; Homo sapiens, HCT-116, read-out: Efficacy, p53 activation, cherry pick confirmation): 59.4%; EC50 ([2]; HCT-116, read-out: EC50, p53 activation, primary screening): 0.326 µM; EC50, p53 activation, cherry pick confirmation [3]: inactive; Efficacy, p53 activation, cherry pick confirmation [3]: inactive; EC50, viability, cherry pick confirmation [4]: inactive; EC50, viability, primary screening [4]: inactive; Efficacy, viability, cherry pick confirmation [4]: inactive; Efficacy, viability, primary screening [4]: inactive; EC50, p53 activation, cherry pick confirmation [5]: inactive; EC50, p53 activation, primary screening [5]: inactive; Efficacy, p53 activation, cherry pick confirmation [5]: inactive; Efficacy, p53 activation, primary screening [5]: inactive
c1cc2ccc3cccc4ccc(c1)c2c34 [Pyrene] | inactive | inactive | inactive | inactive | 21.7 µM | 51.6% | inactive | inactive | inactive | inactive | inactive | inactive | inactive | inactive | inactive | inactive | –
CN1CCc2cc3c(cc2C1O)OCO3 (stereo not shown) [Hydrastinine hydrochloride] | inactive | inactive | inactive | inactive | 28.6 µM | 56.5% | inactive | inactive | inactive | inactive | inactive | inactive | inactive | inactive | inactive | inactive | –
O=C(O)CCCc1ccc(N(CCCl)CCCl)cc1 [Chlorambucil] | – | – | – | – | – | – | – | – | – | – | – | – | – | – | – | – | p53 activation efficacy [1]: 39.7467; EC50 ([1]; Homo sapiens, HCT-116, read-out: p53 activation EC50): 25.7 µM; Emax ([1]; Homo sapiens, HCT-116, read-out: p53 activation efficacy): 31.3%; EC50 ([1]; read-out: p53 activation EC50): 37.3 µM; EC50 ([2]; HCT-116, read-out: p53 activation EC50): 22.6 µM; Emax ([2]; HCT-116, read-out: p53 activation efficacy): 25.2%; p53 activation EC50 [3]: inactive; Viability EC50 [4]: inactive; Viability efficacy [4]: inactive; p53 activation EC50 [5]: inactive; p53 activation efficacy [5]: inactive
O=P(OCC(Br)CBr)(OCC(Br)CBr)OCC(Br)CBr (stereo not shown) [Tris(2,3-dibromopropyl) phosphate] | inactive | inactive | inactive | inactive | 46.6 µM | 38.9% | inactive | inactive | inactive | inactive | inactive | inactive | inactive | inactive | inactive | inactive | –
